Measurements: US20090203709A1, “Pharmaceutical Dosage Form For Oral Administration Of Tyrosine Kinase Inhibitor” (ABBOTT LABORATORIES, priority 2008, published 2009)
Like-named read-outs stand apart in the source and are kept apart here. Marks after values point to notes of the source that are not given here.

What was measured:
[1] = PK comparison across studies M04-710 and M05-756 (race, cancer type); assay type: in vivo, human; details: for Dose Normalized AUC24 / Dose Normalized Cmax: steady state; for half-life: human, plasma, oral
Description: The objective of this analysis was to compare pharmacokinetic (PK) parameters and to monitor safety and early efficacy of ABT-869 when treating solid tumors versus hematologic malignances, Asian versus Caucasian populations and using solution versus tablet formulations.
In study M04-710, blood samples for pharmacokinetic analysis were collected on Days 1 and 15 at the following times: 0 (pre-dose), 0.5, 1, 2, 3, 4, 6, 8, and 24 h (Day 1 only).
In study M05-756, blood samples for pharmacokinetic analysis were collected on Days 1 and 8 at the following times: 0 (pre-dose), 0.5, 1, 2, 3, 4, 6, 8, and 24 h (Day 1 only). Urine was collected for the 24 hour period following dosing on Day 13 through bedtime on Day 14 (non-hematologic malignancy study) and following dosing after Day 6 and through bedtime on Day 7 (AML/MDS study). Plasma and urine concentrations of ABT-869 were determined under the supervision of the Drug Analysis Department at Abbott using LCMS/MS. PK parameters were determined by noncompartmental analysis using WinNonlin Professional Version 5.0.1.

[2] = tested on: non-hematologic malignancy; assay: Efficacy in study M04-710; assay type: in vivo, human
Description: Study M04-710 and M05-756 are ongoing, open-label, multiple-dose escalation trials with ABT-869 administered daily for 21 consecutive days, with dose escalation scheduled in cohorts of 3 subjects. […] In both studies dosing was initiated at 10 mg QD, with subjects self-administering ABT-869 orally (admixed with approximately 60 mL of Ensure Plus or an approved alternative) at bedtime. Food was not allowed 2 h before or after dosing.
ECOG score of 0-2 in study of non-hematologic malignancies or 0-3 in AML/MDS study.

[3] = Safety in study M04-710 (adverse events, DLTs); assay type: in vivo, human
Description: Study M04-710 and M05-756 are ongoing, open-label, multiple-dose escalation trials with ABT-869 administered daily for 21 consecutive days, with dose escalation scheduled in cohorts of 3 subjects. […] In both studies dosing was initiated at 10 mg QD, with subjects self-administering ABT-869 orally (admixed with approximately 60 mL of Ensure Plus or an approved alternative) at bedtime. Food was not allowed 2 h before or after dosing. As a portion of trial M04-710, the bioavailability of ABT-869 as a single dose in a 10 mg tablet formulation was determined relative to the solution formulation.
(§1) The following safety evaluations were performed during the studies: adverse event monitoring, vital signs, ECGs, physical examination and laboratory tests assessments.

[4] = human, in vivo
Description: (§2) Food was not allowed 2 h before or after dosing.
as §1

[5] = Safety in study M05-756 (AML/MDS; adverse events, DLTs)
Description: as §2, §1

[6] = Asian population, N 37, adjusted mean (% CV)
[7] = Caucasian population, N 12, adjusted mean (% CV)
[8] = Hematologic malignancies, N 17, adjusted mean (% CV)
[9] = Solid tumors, N 32, adjusted mean (% CV)
[10] = all cycles, N = 27, highest grade per subject
[11] = all cycles, N = 27, includes Skin Reaction, Skin Lesion, and Rash
[12] = all cycles, N = 10, highest grade per subject

In the case of Cc1ccc(F)c(NC(=O)Nc2ccc(-c3cccc4[nH]nc(N)c34)cc2)c1 [ABT-869, N-[4-(3-amino-1H-indazol-4-yl)phenyl]-N′-(2-fluoro-5-methylphenyl)urea], the “time to maximum plasma concentration” value ([1]; 42 patients across studies) is reported as “approximately 3 h”, the “Dose Normalized AUC24” value [1, 6] is reported as 0.264 (41%) μg · hr/mL/mg and the “Dose Normalized Cmax” value [1, 6] is reported as 0.018 (37%) μg/mL/mg. For the same compound, the “Dose Normalized AUC24” value [1, 7] was 0.229 (34%) μg · hr/mL/mg, the “Dose Normalized Cmax” value [1, 7] was 0.016 (27%) μg/mL/mg and the “Dose Normalized AUC24” value [1, 8] was 0.230 (39%) μg · hr/mL/mg. The “Dose Normalized Cmax” value [1, 8] was 0.018 (33%) μg/mL/mg, the “Dose Normalized AUC24” value [1, 9] was 0.273 (40%) μg · hr/mL/mg and the “Dose Normalized Cmax” value [1, 9] was 0.017 (39%) μg/mL/mg. It also gave a half-life ([1]; 42 patients across studies, read-out: mean terminal elimination half-life) of 13.9 to 23.1 h, a half-life ([1]; Asian population, N 37, adjusted mean (% CV), read-out: T1/2 (converted)) of 18.4 h and a half-life ([1]; Caucasian population, N 12, adjusted mean (% CV), read-out: T1/2 (converted)) of 14.5 h. For the same compound, the half-life ([1]; Hematologic malignancies, N 17, adjusted mean (% CV), read-out: T1/2 (converted)) was 15.7 h, the half-life ([1]; Solid tumors, N 32, adjusted mean (% CV), read-out: T1/2 (converted)) was 18.4 h and the “change in tumor size” value ([2]; NSCLC, CRC, neuroendocrine tumor, HCC, RCC soft tissue sarcoma and ovarian carcinoma) was “Reductions in tumor size observed”. For the same compound, the “NSCLC patients with partial remission / partial response” value ([2]; study M04-710) was 2 (9%) patients (%), the “patients with SD for >1 year with no accumulation of toxicity” value ([2]; study M04-710) was 4 patients and the “patients with SD for ≧6 months” value ([2]; study M04-710) was 6 (22%) patients (%). The “patients with stable disease (SD) for ≧3 months (4 treatment periods)” value ([2]; study M04-710) was 15 (56%) patients (%), the “DLT: Grade 3 hypertension” value ([3]; 0.10 mg/kg) was 1 patient and the “DLT: Grade 3 hypertension” value ([3]; 0.25 mg/kg) was 1 patient. For the same compound, the “DLT: Grade 3 proteinuria” value ([3]; 0.25 mg/kg) was 1 patient, the “DLT: Grade 3 proteinuria and Grade 3 hypertension” value ([3]; 0.30 mg/kg) was 2 patients and the “DLT: Grade 3 fatigue” value ([3]; 10 mg/body) was 1 patient. For the same compound, the “Anorexia, Overall” value ([3]; all cycles, N = 27) was 7 (25.9) n (%), the “Arthralgia, Overall” value ([3]; all cycles, N = 27) was 6 (22.2) n (%) and the “Constipation, Overall” value ([3]; all cycles, N = 27) was 6 (22.2) n (%). For the same compound, the “Diarrhoea, Overall” value ([3]; all cycles, N = 27) was 7 (25.9) n (%), the “Fatigue, Overall” value ([3]; all cycles, N = 27) was 22 (81.5) n (%) and the “Hypertension, Overall” value ([3]; all cycles, N = 27) was 12 (44.4) n (%). The “Myalgia, Overall” value ([3]; all cycles, N = 27) was 15 (55.6) n (%), the “Nausea, Overall” value ([3]; all cycles, N = 27) was 5 (18.5) n (%) and the “Oral Pain, Overall” value ([3]; all cycles, N = 27) was 11 (40.7) n (%). For the same compound, the “Proteinuria, Overall” value ([3]; all cycles, N = 27) was 6 (22.2) n (%), the “Vomiting, Overall” value ([3]; all cycles, N = 27) was 5 (18.5) n (%) and the “Anorexia, Grade 1” value [3, 10] was 6 n. For the same compound, the “Anorexia, Grade 2” value [3, 10] was 1 n, the “Anorexia, Grade 3/4” value [3, 10] was 0 n and the “Arthralgia, Grade 1” value [3, 10] was 5 n. The “Arthralgia, Grade 2” value [3, 10] was 1 n, the “Arthralgia, Grade 3/4” value [3, 10] was 0 n and the “Constipation, Grade 1” value [3, 10] was 0 n. For the same compound, the “Constipation, Grade 2” value [3, 10] was 6 n, the “Constipation, Grade 3/4” value [3, 10] was 0 n and the “Diarrhoea, Grade 1” value [3, 10] was 6 n. For the same compound, the “Diarrhoea, Grade 2” value [3, 10] was 1 n, the “Diarrhoea, Grade 3/4” value [3, 10] was 0 n and the “Fatigue, Grade 1” value [3, 10] was 14 n. The “Fatigue, Grade 2” value [3, 10] was 4 n, the “Hypertension, Grade 1” value [3, 10] was 0 n and the “Hypertension, Grade 2” value [3, 10] was 8 n. For the same compound, the “Hypertension, Grade 3/4” value [3, 10] was 4 n, the “Myalgia, Grade 1” value [3, 10] was 9 n and the “Myalgia, Grade 2” value [3, 10] was 6 n. For the same compound, the “Myalgia, Grade 3/4” value [3, 10] was 0 n, the “Nausea, Grade 1” value [3, 10] was 3 n and the “Nausea, Grade 2” value [3, 10] was 2 n. The “Nausea, Grade 3/4” value [3, 10] was 0 n, the “Oral Pain, Grade 1” value [3, 10] was 9 n and the “Oral Pain, Grade 2” value [3, 10] was 2 n. For the same compound, the “Oral Pain, Grade 3/4” value [3, 10] was 0 n, the “Proteinuria, Grade 1” value [3, 10] was 0 n and the “Proteinuria, Grade 2” value [3, 10] was 2 n. The “Proteinuria, Grade 3/4” value [3, 10] was 4 n, the “Vomiting, Grade 1” value [3, 10] was 4 n and the “Vomiting, Grade 2” value [3, 10] was 1 n. The “Vomiting, Grade 3/4” value [3, 10] was 0 n, the “Skin Related Event, Grade 1” value [3, 11] was 5 n and the “Skin Related Event, Grade 2” value [3, 11] was 9 n. The “Skin Related Event, Grade 3/4” value [3, 11] was 1 n, the “Skin Related Event, Overall” value [3, 11] was 15 (55.6) n (%) and the “Fatigue, Grade 3/4” value ([3]; all cycles, N = 27, occurred in cycle 3 or later) was 4** n. For the same compound, the dose-limiting toxicities ([3]; study M04-710) was “hypertension, proteinuria and fatigue are dose-limiting”, the reversibility of toxicities ([3]; study M04-710) was “treatable, or reversible with ABT-869 interruption” and the “Klebsiella Bacteraemia, Grade 1” value [4] was 0 n. The “Klebsiella Bacteraemia, Grade 2” value [4] was 0 n, the “Klebsiella Bacteraemia, Grade 3/4” value [4] was 2 n and the “Klebsiella Bacteraemia, Overall” value [4] was 2 (20.0) n (%). The Dose limiting fatigue ([5]; 20 mg/body cohort) was 3 patients, the “Alopecia, Overall” value ([5]; all cycles, N = 10) was 2 (20.0) n (%) and the “Anorexia, Overall” value ([5]; all cycles, N = 10) was 2 (20.0) n (%). The “Asthenia, Overall” value ([5]; all cycles, N = 10) was 3 (30.0) n (%), the “Constipation, Overall” value ([5]; all cycles, N = 10) was 2 (20.0) n (%) and the “Cough, Overall” value ([5]; all cycles, N = 10) was 3 (30.0) n (%). For the same compound, the “Diarrhoea, Overall” value ([5]; all cycles, N = 10) was 4 (40.0) n (%), the “Fatigue, Overall” value ([5]; all cycles, N = 10) was 2 (20.0) n (%) and the “Febrile Neutropenia, Overall” value ([5]; all cycles, N = 10) was 3 (30.0) n (%). For the same compound, the “Haematuria, Overall” value ([5]; all cycles, N = 10) was 2 (20.0) n (%), the “Hypocalcaemia, Overall” value ([5]; all cycles, N = 10) was 2 (20.0) n (%) and the “Hypokalaemia, Overall” value ([5]; all cycles, N = 10) was 2 (20.0) n (%). For the same compound, the “Myalgia, Overall” value ([5]; all cycles, N = 10) was 2 (20.0) n (%), the “Nausea, Overall” value ([5]; all cycles, N = 10) was 2 (20.0) n (%) and the “Palmar-plantar erythrodysaesthesia syndrome, Overall” value ([5]; all cycles, N = 10) was 2 (20.0) n (%). The “Pyrexia, Overall” value ([5]; all cycles, N = 10) was 3 (30.0) n (%), the “Alopecia, Grade 1” value [5, 12] was 0 n and the “Alopecia, Grade 2” value [5, 12] was 2 n. The “Alopecia, Grade 3/4” value [5, 12] was 0 n, the “Anorexia, Grade 1” value [5, 12] was 2 n and the “Anorexia, Grade 2” value [5, 12] was 0 n. For the same compound, the “Anorexia, Grade 3/4” value [5, 12] was 0 n, the “Asthenia, Grade 1” value [5, 12] was 1 n and the “Asthenia, Grade 2” value [5, 12] was 0 n. The “Asthenia, Grade 3/4” value [5, 12] was 2 n, the “Constipation, Grade 1” value [5, 12] was 2 n and the “Constipation, Grade 2” value [5, 12] was 0 n. For the same compound, the “Constipation, Grade 3/4” value [5, 12] was 0 n, the “Cough, Grade 1” value [5, 12] was 3 n and the “Cough, Grade 2” value [5, 12] was 0 n. For the same compound, the “Cough, Grade 3/4” value [5, 12] was 0 n, the “Diarrhoea, Grade 1” value [5, 12] was 2 n and the “Diarrhoea, Grade 2” value [5, 12] was 1 n. The “Diarrhoea, Grade 3/4” value [5, 12] was 1 n, the “Fatigue, Grade 1” value [5, 12] was 1 n and the “Fatigue, Grade 2” value [5, 12] was 1 n. The “Fatigue, Grade 3/4” value [5, 12] was 0 n, the “Febrile Neutropenia, Grade 1” value [5, 12] was 0 n and the “Febrile Neutropenia, Grade 2” value [5, 12] was 0 n. For the same compound, the “Febrile Neutropenia, Grade 3/4” value [5, 12] was 3 n, the “Haematuria, Grade 1” value [5, 12] was 1 n and the “Haematuria, Grade 2” value [5, 12] was 1 n. The “Haematuria, Grade 3/4” value [5, 12] was 0 n, the “Hypocalcaemia, Grade 1” value [5, 12] was 2 n and the “Hypocalcaemia, Grade 2” value [5, 12] was 0 n. The “Hypocalcaemia, Grade 3/4” value [5, 12] was 0 n, the “Hypokalaemia, Grade 1” value [5, 12] was 2 n and the “Hypokalaemia, Grade 2” value [5, 12] was 0 n. For the same compound, the “Hypokalaemia, Grade 3/4” value [5, 12] was 0 n, the “Myalgia, Grade 1” value [5, 12] was 1 n and the “Myalgia, Grade 2” value [5, 12] was 0 n. For the same compound, the “Myalgia, Grade 3/4” value [5, 12] was 1 n, the “Nausea, Grade 1” value [5, 12] was 2 n and the “Nausea, Grade 2” value [5, 12] was 0 n. For the same compound, the “Nausea, Grade 3/4” value [5, 12] was 0 n, the “Palmar-plantar erythrodysaesthesia syndrome, Grade 1” value [5, 12] was 2 n and the “Palmar-plantar erythrodysaesthesia syndrome, Grade 2” value [5, 12] was 0 n. The “Palmar-plantar erythrodysaesthesia syndrome, Grade 3/4” value [5, 12] was 0 n, the “Pyrexia, Grade 1” value [5, 12] was 1 n and the “Pyrexia, Grade 2” value [5, 12] was 1 n. For the same compound, the “Pyrexia, Grade 3/4” value [5, 12] was 1 n, the dose-limiting toxicities ([5]; study M05-756) was “fatigue is dose-limiting” and the reversibility of toxicities ([5]; study M05-756) was “treatable, or reversible with ABT-869 interruption”.
